Consider 3 compounds from patent US9340590B2 (priority 2011, dated 2016).

The target in the assay is hNav1.7 (Homo sapiens, UniProt Q15858). In words: cell-based. Type of assay: cell-based. The note with it: read-out: IWQ Use Nav1.7.

SMILES strings stand for the structures. Like-named read-outs stand apart in the source and are kept apart here. Positions of bridges follow the written chain, without caps; N, C: chain ends. Residues, ends and D or L forms follow the SMILES beside them.

Sequence of hNav1.7 (Q15858 whole entry, looked up): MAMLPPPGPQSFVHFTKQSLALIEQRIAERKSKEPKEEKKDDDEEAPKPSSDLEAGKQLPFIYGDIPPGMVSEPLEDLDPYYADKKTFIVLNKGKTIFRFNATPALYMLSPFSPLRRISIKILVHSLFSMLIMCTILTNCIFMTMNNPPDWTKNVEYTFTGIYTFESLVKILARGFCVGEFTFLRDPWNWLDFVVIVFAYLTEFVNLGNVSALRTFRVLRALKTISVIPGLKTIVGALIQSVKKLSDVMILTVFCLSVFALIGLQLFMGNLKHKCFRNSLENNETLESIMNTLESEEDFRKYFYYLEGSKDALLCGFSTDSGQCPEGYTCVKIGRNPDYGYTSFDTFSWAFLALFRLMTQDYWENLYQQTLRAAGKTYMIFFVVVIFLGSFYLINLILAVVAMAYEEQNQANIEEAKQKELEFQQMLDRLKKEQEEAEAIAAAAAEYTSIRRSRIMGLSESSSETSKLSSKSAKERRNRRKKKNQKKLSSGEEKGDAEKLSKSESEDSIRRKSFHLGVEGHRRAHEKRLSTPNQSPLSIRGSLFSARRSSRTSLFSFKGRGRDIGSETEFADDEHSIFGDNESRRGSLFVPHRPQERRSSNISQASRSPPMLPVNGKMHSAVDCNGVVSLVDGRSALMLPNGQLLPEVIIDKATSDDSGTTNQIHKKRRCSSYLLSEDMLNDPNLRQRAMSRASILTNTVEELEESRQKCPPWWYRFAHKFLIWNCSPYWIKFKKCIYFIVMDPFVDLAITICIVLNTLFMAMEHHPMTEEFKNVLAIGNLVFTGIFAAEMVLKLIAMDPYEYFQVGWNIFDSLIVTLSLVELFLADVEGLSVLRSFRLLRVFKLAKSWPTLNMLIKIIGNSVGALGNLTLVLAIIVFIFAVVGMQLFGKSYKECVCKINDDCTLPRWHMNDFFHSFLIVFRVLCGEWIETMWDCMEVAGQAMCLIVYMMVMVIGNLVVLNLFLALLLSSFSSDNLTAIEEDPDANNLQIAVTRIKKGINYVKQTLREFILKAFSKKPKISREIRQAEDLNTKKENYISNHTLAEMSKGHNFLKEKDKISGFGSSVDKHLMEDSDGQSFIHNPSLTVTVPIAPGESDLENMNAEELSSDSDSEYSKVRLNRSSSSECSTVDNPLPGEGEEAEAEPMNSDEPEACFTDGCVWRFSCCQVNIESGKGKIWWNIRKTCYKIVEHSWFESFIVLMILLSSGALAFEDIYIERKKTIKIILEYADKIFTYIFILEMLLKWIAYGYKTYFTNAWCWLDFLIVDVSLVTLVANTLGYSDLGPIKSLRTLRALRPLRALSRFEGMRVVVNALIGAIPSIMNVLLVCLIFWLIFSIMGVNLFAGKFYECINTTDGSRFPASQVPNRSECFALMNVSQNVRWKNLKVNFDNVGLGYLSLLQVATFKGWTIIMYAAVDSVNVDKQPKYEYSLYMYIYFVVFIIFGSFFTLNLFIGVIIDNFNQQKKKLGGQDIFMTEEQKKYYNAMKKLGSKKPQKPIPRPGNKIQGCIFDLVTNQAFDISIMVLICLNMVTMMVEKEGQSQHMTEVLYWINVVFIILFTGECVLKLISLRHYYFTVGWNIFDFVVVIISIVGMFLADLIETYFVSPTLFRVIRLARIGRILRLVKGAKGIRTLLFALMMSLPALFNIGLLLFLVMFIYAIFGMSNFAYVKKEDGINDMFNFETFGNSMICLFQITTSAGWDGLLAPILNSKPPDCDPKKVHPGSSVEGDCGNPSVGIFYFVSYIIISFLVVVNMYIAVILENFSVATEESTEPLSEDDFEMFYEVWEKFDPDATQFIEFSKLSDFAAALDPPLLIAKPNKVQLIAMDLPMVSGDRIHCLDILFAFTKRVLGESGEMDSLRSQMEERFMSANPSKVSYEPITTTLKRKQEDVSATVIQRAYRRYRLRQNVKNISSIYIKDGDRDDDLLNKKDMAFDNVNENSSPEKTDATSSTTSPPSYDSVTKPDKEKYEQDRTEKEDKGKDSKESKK

`CC[C@H](C)[C@@H]1NC(=O)[C@@H]2CSSC[C@@H]3NC(=O)[C@H](C(C)C)NC(=O)[C@H](CC(C)C)NC(=O)[C@H](CC(N)=O)NC(=O)[C@@H]4CCCN4C(=O)[C@H](CCCNC(=N)N)NC(=O)[C@H](CSSC[C@H](NC(=O)[C@@H](N)CC(=O)O)C(=O)N[C@@H](CC(C)C)C(=O)NCC(=O)N[C@@H](Cc4ccccc4)C(=O)N[C@@H](CCSC)C(=O)N[C@@H](CCCNC(=N)N)C(=O)N[C@@H](CCCCN)C(=O)N2)NC(=O)[C@H](CSSC[C@@H](C(=O)N[C@@H](CCCCN)C(=O)N[C@@H](Cc2ccc(O)cc2)C(=O)N[C@@H](CCC(=O)O)C(=O)N[C@@H](Cc2ccccc2)C(N)=O)NC(=O)[C@H](Cc2c[nH]c4ccccc24)NC(=O)[C@H](CCCCN)NC(=O)[C@H](Cc2c[nH]cn2)NC(=O)[C@H]([C@@H](C)O)NC(=O)[C@H](CCCNC(=N)N)NC(=O)[C@H](CO)NC3=O)NC(=O)[C@H](CCCCN)NC(=O)[C@H](CC(=O)O)NC(=O)[C@H](CC(N)=O)NC(=O)[C@H](CC(=O)O)NC(=O)[C@@H]2CCCN2C1=O` [SEQ ID NO: 33, [Glu33]GpTx-1] (H-DCLGFMRKCIPDNDKCCRPNLVCSRTHKWCKYEF-NH2; disulfide 2-17, 9-23, 16-30): the IC50 amounted to 560 nM.

Consider `CC[C@H](C)[C@@H]1NC(=O)[C@@H]2CSSC[C@@H]3NC(=O)[C@H](C(C)C)NC(=O)[C@H](CC(C)C)NC(=O)[C@H](CC(N)=O)NC(=O)[C@@H]4CCCN4C(=O)[C@H](CCCNC(=N)N)NC(=O)[C@H](CSSC[C@H](NC(=O)[C@@H](N)CCCCN)C(=O)N[C@@H](CC(C)C)C(=O)NCC(=O)N[C@@H](Cc4ccccc4)C(=O)N[C@@H](CCSC)C(=O)N[C@@H](CCCNC(=N)N)C(=O)N[C@@H](CCCCN)C(=O)N2)NC(=O)[C@H](CSSC[C@@H](C(=O)N[C@@H](CCCCN)C(=O)N[C@@H](Cc2ccc(O)cc2)C(=O)N[C@H](C(=O)N[C@@H](Cc2ccccc2)C(N)=O)C(C)C)NC(=O)[C@H](Cc2c[nH]c4ccccc24)NC(=O)[C@H](CCCCN)NC(=O)[C@H](Cc2c[nH]cn2)NC(=O)[C@H]([C@@H](C)O)NC(=O)[C@H](CCCNC(=N)N)NC(=O)[C@H](CO)NC3=O)NC(=O)[C@H](CCCCN)NC(=O)[C@H](CC(=O)O)NC(=O)[C@H](CC(N)=O)NC(=O)[C@H](CC(=O)O)NC(=O)[C@@H]2CCCN2C1=O` [SEQ ID NO: 37] (H-KCLGFMRKCIPDNDKCCRPNLVCSRTHKWCKYVF-NH2; disulfide 2-17, 9-23, 16-30), for which, where the note is “IonWorks Quattro, clamped to −110 mV, depolarized to −10 mV, 5 min after compound, n=2”, the IC50 is 150 nM.

Take `CC[C@H](C)[C@@H]1NC(=O)[C@@H]2CSSC[C@@H]3NC(=O)[C@H](C(C)C)NC(=O)[C@H](CC(C)C)NC(=O)[C@H](CC(N)=O)NC(=O)[C@@H]4CCCN4C(=O)[C@H](CCCNC(=N)N)NC(=O)[C@H](CSSC[C@H](NC(=O)[C@@H](N)CCCNC(=N)N)C(=O)N[C@@H](CC(C)C)C(=O)NCC(=O)N[C@@H](Cc4ccccc4)C(=O)N[C@@H](CCSC)C(=O)N[C@@H](CCCNC(=N)N)C(=O)N[C@@H](CCCCN)C(=O)N2)NC(=O)[C@H](CSSC[C@@H](C(=O)N[C@@H](CCCCN)C(=O)N[C@@H](Cc2ccc(O)cc2)C(=O)N[C@H](C(=O)N[C@@H](Cc2ccccc2)C(N)=O)C(C)C)NC(=O)[C@H](Cc2c[nH]c4ccccc24)NC(=O)[C@H](CCCCN)NC(=O)[C@H](Cc2c[nH]cn2)NC(=O)[C@H]([C@@H](C)O)NC(=O)[C@H](CCCNC(=N)N)NC(=O)[C@H](CO)NC3=O)NC(=O)[C@H](CCCCN)NC(=O)[C@H](CC(=O)O)NC(=O)[C@H](CC(N)=O)NC(=O)[C@H](CC(=O)O)NC(=O)[C@@H]2CCCN2C1=O` [SEQ ID NO: 62] (H-RCLGFMRKCIPDNDKCCRPNLVCSRTHKWCKYVF-NH2; disulfide 2-17, 9-23, 16-30): the IC50 was determined as 110 nM.
